Test results from patent US3940382A, “1,2'-Di-N-substituted kanamycin B compounds” (Zaidan Hojin Biseibutsu Kagaku Kenkyu Kai, priority 1973, dated 1976).
Values after ≈ are worked out from the molar mass of the structure shown.

Columns and labels:
[1] = test system: drug-resistant bacteria; conditions: cited from earlier work
[2] = test system: Staphylococcus aureus FDA 209P; test: MIC, serial dilution on nutrient agar; assay type: cell-based; conditions: Staphylococcus aureus, FDA209P, 18 h, read-out: Minimum Inhibitory Concentrations
[3] = test system: Escherichia coli LA290 R56; test: MIC, serial dilution on nutrient agar; assay type: cell-based; conditions: LA290R56, 18 h, read-out: Minimum Inhibitory Concentrations
[4] = test system: Escherichia coli K-12 ML 1410; test: MIC, serial dilution on nutrient agar; assay type: cell-based; conditions: Escherichia coli, K12ML1410, 18 h, read-out: Minimum Inhibitory Concentrations
[5] = test system: Pseudomonas aeruginosa A3; test: MIC, serial dilution on nutrient agar; assay type: cell-based; conditions: Pseudomonas aeruginosa, A3, 18 h, read-out: Minimum Inhibitory Concentrations
[6] = test system: Pseudomonas aeruginosa 99; test: MIC, serial dilution on nutrient agar; assay type: cell-based; conditions: Pseudomonas aeruginosa, 99, 18 h, read-out: Minimum Inhibitory Concentrations
[7] = test system: Klebsiella pneumoniae 22 -3038; test: MIC, serial dilution on nutrient agar; assay type: cell-based; conditions: Klebsiella pneumoniae, 223038, 18 h, read-out: Minimum Inhibitory Concentrations
[8] = test system: Shigella dysenteriae JS 11910; test: MIC, serial dilution on nutrient agar; assay type: cell-based; conditions: JS11910, 18 h, read-out: Minimum Inhibitory Concentrations
[9] = test system: Escherichia coli K-12 ML 1629; test: MIC, serial dilution on nutrient agar; assay type: cell-based; conditions: Escherichia coli, K12ML1629, 18 h, read-out: Minimum Inhibitory Concentrations
[10] = test system: Pseudomonas aeruginosa No.12; test: MIC, serial dilution on nutrient agar; assay type: cell-based; conditions: Pseudomonas aeruginosa, NO.12, 18 h, read-out: Minimum Inhibitory Concentrations
[11] = test system: Escherichia coli K-12 ML 1630; test: MIC, serial dilution on nutrient agar; assay type: cell-based; conditions: K12ML1630, 37°C, 18 hours, read-out: Minimum Inhibitory Concentrations
Experimental: (§1) The minimum inhibitory concentrations (mcg/ml) of 1,2'-di-N-[(S)-4-amino-2-hydroxybutyryl]-kanamycin B (abbreviated as 1,2'-AHB-KMB), 1,2'-di-N-[(S)-4-amino-2-hydroxybutyryl]-3',4'-dideoxykanamycin B (abbreviated as 1,2'-AHB-DKB), 1,2'-di-N-DL-isoseryl-3',4'-dideoxykanamycin B (abbreviated as 1,2'-IS-DKB) and 1,2'-di-N-DL-isoseryl-kanamycin B (abbreviated as 1,2'-IS-KMB) against various microorganisms were determined according to serial dilution method using nutrient agar medium at 37°C, the estimation being effected after 18 hours incubation. For comparison, the minimum inhibitory concentrations of kanamycin B (abbreviated as KMB) and 3',4'-dideoxykanamycin B (abbreviated as DKB) were also determined in the same manner as mentioned above.

[12] = test system: Shigella flexneri 4b JS 11811; test: MIC, serial dilution on nutrient agar; assay type: cell-based; conditions: 4BJS11811, 37°C, 18 hours, read-out: Minimum Inhibitory Concentrations
Experimental: as §1

[13] = test system: Shigella sonnei JS 11746; test: MIC, serial dilution on nutrient agar; assay type: cell-based; conditions: JS11746, 37°C, 18 hours, read-out: Minimum Inhibitory Concentrations
Experimental: as §1

[14] = test system: Bacillus subtilis NRRL B-558; test: MIC, serial dilution on nutrient agar; assay type: cell-based; conditions: Bacillus subtilis, NRRLB558, 18 h, read-out: Minimum Inhibitory Concentrations
[15] = test system: Staphylococcus aureus Smith; test: MIC, serial dilution on nutrient agar; assay type: cell-based; conditions: Staphylococcus aureus, 18 h, read-out: Minimum Inhibitory Concentrations
[16] = test system: Escherichia coli K-12 ML 1410 R81; test: MIC, serial dilution on nutrient agar; assay type: cell-based; conditions: 18 h, read-out: Minimum Inhibitory Concentrations
[17] = test system: Staphylococcus aureus Terejima; test: MIC, serial dilution on nutrient agar; assay type: cell-based; conditions: Staphylococcus aureus, 18 h, read-out: Minimum Inhibitory Concentrations
[18] = test system: Pseudomonas aeruginosa TI-13; test: MIC, serial dilution on nutrient agar; assay type: cell-based; conditions: Pseudomonas aeruginosa, TI13, 18 h, read-out: Minimum Inhibitory Concentrations
[19] = test system: Escherichia coli JR66/W677; test: MIC, serial dilution on nutrient agar; assay type: cell-based; conditions: Escherichia coli, JR66/W677, 18 h, read-out: Minimum Inhibitory Concentrations
[20] = test system: Proteus vulgaris OX 19; test: MIC, serial dilution on nutrient agar; assay type: cell-based; conditions: Proteus vulgaris, OX19, 18 h, read-out: Minimum Inhibitory Concentrations
[21] = test system: Bacillus cereus ATCC 10702; test: MIC, serial dilution on nutrient agar; assay type: cell-based; conditions: Bacillus cereus, ATCC10702, 18 h, read-out: Minimum Inhibitory Concentrations
[22] = test system: Escherichia coli LA290 R64; test: MIC, serial dilution on nutrient agar; assay type: cell-based; conditions: LA290R64, 18 h, read-out: Minimum Inhibitory Concentrations
[23] = test system: Bacillus subtilis PCI 219; test: MIC, serial dilution on nutrient agar; assay type: cell-based; conditions: Bacillus subtilis, PCI219, 18 h, read-out: Minimum Inhibitory Concentrations
[24] = test system: Escherichia coli K-12; test: MIC, serial dilution on nutrient agar; assay type: cell-based; conditions: Escherichia coli, K12, 18 h, read-out: Minimum Inhibitory Concentrations
[25] = test system: Bacillus anthracis; test: microbe, parasite or virus in culture; assay type: cell-based; conditions: 18 h, read-out: Minimum Inhibitory Concentrations
[26] = test system: Escherichia coli LA290 R55; test: MIC, serial dilution on nutrient agar; assay type: cell-based; conditions: LA290R55, 18 h, read-out: Minimum Inhibitory Concentrations
[27] = test system: Klebsiella pneumoniae PCI 602; test: MIC, serial dilution on nutrient agar; assay type: cell-based; conditions: Klebsiella pneumoniae, PCI602, 18 h, read-out: Minimum Inhibitory Concentrations
[28] = test system: Pseudomonas aeruginosa GN315; test: MIC, serial dilution on nutrient agar; assay type: cell-based; conditions: Pseudomonas aeruginosa, GN315, 18 h, read-out: Minimum Inhibitory Concentrations
[29] = test system: Escherichia coli NIHJ; test: MIC, serial dilution on nutrient agar; assay type: cell-based; conditions: Escherichia coli, 18 h, read-out: Minimum Inhibitory Concentrations
[30] = test system: Corynebacterium bovis 1810; test: MIC, serial dilution on nutrient agar; assay type: cell-based; conditions: Corynebacterium bovis, 1810, 18 h, read-out: Minimum Inhibitory Concentrations
[31] = test system: Salmonella enteritidis 1891; test: MIC, serial dilution on nutrient agar; assay type: cell-based; conditions: Salmonella enterica, ENTERITIDIS, 18 h, read-out: Minimum Inhibitory Concentrations
[32] = test system: Mycobacterium smegmatis ATCC 607; test: MIC, serial dilution on nutrient agar; assay type: cell-based; conditions: Mycolicibacterium smegmatis, ATCC607, 18 h, read-out: Minimum Inhibitory Concentrations
[33] = test system: Salmonella typhosa T-63; test: MIC, serial dilution on nutrient agar; assay type: cell-based; conditions: Salmonella enterica, 18 h, read-out: Minimum Inhibitory Concentrations
[34] = test system: Escherichia coli W677; test: MIC, serial dilution on nutrient agar; assay type: cell-based; conditions: Escherichia coli, W677, 18 h, read-out: Minimum Inhibitory Concentrations
[35] = test system: Sarcina lutea PCI 1001; test: MIC, serial dilution on nutrient agar; assay type: cell-based; conditions: Micrococcus luteus, PCI1001, 18 h, read-out: Minimum Inhibitory Concentrations

**Q.** With `NC[C@H]1O[C@H](O[C@H]2[C@H](O)[C@@H](O[C@H]3O[C@H](CO)[C@@H](O)[C@H](N)[C@H]3O)[C@H](N)C[C@@H]2N)[C@H](N)C[C@@H]1O` [3'-deoxykanamycin B] as the molecule, how does the “antibacterial activity against the drug-resistant bacteria” value (“antibacterial activity” for short) [1] read?
**A.** improved antibacterial activity

**Q.** Which results are given for `NC[C@H]1O[C@H](O[C@H]2[C@H](O)[C@@H](O[C@H]3O[C@H](CO)[C@@H](O)[C@H](N)[C@H]3O)[C@H](N)C[C@@H]2N)[C@H](N)[C@@H](O)[C@@H]1O` [KMB, kanamycin B]?
**A.** MIC [2]: < 0.2 µg/mL; MIC [3]: 3.13 µg/mL (≈ 6.47 µM); MIC [4]: 0.78 µg/mL (≈ 1.61 µM); MIC [5]: 50 µg/mL (≈ 103 µM); MIC [6]: > 100 µg/mL; MIC [7]: > 100 µg/mL; MIC [8]: 3.13 µg/mL (≈ 6.47 µM); MIC [9]: > 100 µg/mL; MIC [10]: 12.5 µg/mL (≈ 25.9 µM); MIC [11]: > 100 µg/mL; MIC [12]: 3.13 µg/mL (≈ 6.47 µM); MIC [13]: 1.56 µg/mL (≈ 3.23 µM); MIC [14]: < 0.2 µg/mL; MIC [15]: 0.39 µg/mL (≈ 0.807 µM); MIC [16]: > 100 µg/mL; MIC [17]: < 0.2 µg/mL; MIC [18]: 100 µg/mL (≈ 207 µM); MIC [19]: > 100 µg/mL; MIC [20]: 0.78 µg/mL (≈ 1.61 µM); MIC [21]: 0.78 µg/mL (≈ 1.61 µM); MIC [22]: 3.13 µg/mL (≈ 6.47 µM); MIC [23]: < 0.2 µg/mL; MIC [24]: 0.78 µg/mL (≈ 1.61 µM); MIC [25]: < 0.2 µg/mL; MIC [26]: 12.5 µg/mL (≈ 25.9 µM); MIC [27]: 0.78 µg/mL (≈ 1.61 µM); MIC [28]: > 100 µg/mL; MIC [29]: 0.78 µg/mL (≈ 1.61 µM); MIC [30]: 1.56 µg/mL (≈ 3.23 µM); MIC [31]: 1.56 µg/mL (≈ 3.23 µM); MIC [32]: 0.78 µg/mL (≈ 1.61 µM); MIC [33]: 0.2 µg/mL (≈ 0.414 µM); MIC [34]: 0.39 µg/mL (≈ 0.807 µM); MIC [35]: 1.56 µg/mL (≈ 3.23 µM)

**Q.** Which “antibacterial activity” value [1] does the source give for `CNC[C@H]1O[C@H](O[C@H]2[C@H](O)[C@@H](O[C@H]3O[C@H](CO)[C@@H](O)[C@H](N)[C@H]3O)[C@H](N)C[C@@H]2N)[C@H](N)C[C@@H]1O` [3'-deoxy-6'-N-methylkanamycin B] here?
**A.** improved antibacterial activity

**Q.** With `NC[C@H]1O[C@H](O[C@H]2[C@H](O[C@@H]3O[C@H](CO)[C@@H](O)[C@H]3O)[C@@H](O)[C@H](N)C[C@@H]2N)[C@H](N)C[C@@H]1O` [3'-deoxyribostamycin] as the molecule, how does the “antibacterial activity” value [1] read?
**A.** improved antibacterial activity
